Reference: US5532225A, “Acyclic purine phosphonate nucleotide analogs as antiviral agents, and related synthetic methods” (SRI International, priority 1992, dated 1996)

Key:
[1] = tested on: human cytomegalovirus; experiment: in vitro antiviral evaluation (cytotoxicity and viral cytopathic effect, CPE) in MRC-5 cells; type: cell-based; settings: racemate approximately 50:50 (w/w) of 1-9 and 2-9
Protocol: The compounds prepared in Examples 1 and 2 were evaluated in vitro as antiviral agents against human cytomegalovirus.
One herpes virus strain employed was Strain McCrae of type 1 herpes (thymidine kinase positive virus) (HSV-1TK^+). This strain was prepared and titered in MA-104 cells and frozen at -90° C. until use. Also used were strain HF (HSV-1TK^-), strain E194 (HSV-2), NJB strain (MCMV), and strain AD169 (HCMV).
Continuous passaged MRC-5 cells obtained from the American Type Culture Collection (Bethesda, Md.) were used for testing of herpes-type virus, with growth medium consisting of Minimum Essential Medium (MEM) supplemented with 0.1% NaHCO3 and […] gentamicin.
To a 96 well microtiter plate containing an established 24 hour monolayer of cells from which the medium has been decanted was added 0.1 mL of varying (one-half log10) concentrations of test compound, which incubated on the cell 15 minutes, after which 0.1 mL of virus in a concentration of 320 cell culture 50% infectious doses (CCID50)/0.1 mL was added. The plate was covered with plastic wrap and incubated at 37° C. The cells were examined microscopically after 72 hours for evidence of cytotoxicity and for viral cytopathic effect (CPE).

[2] = tested on: several herpes viruses; experiment: activity of isolated enantiomer against several herpes viruses (general statement); type: cell-based

In the case of `Nc1nc2c(ncn2CO[C@@H](CO)CCP(=O)(O)O)c(=O)[nH]1` [Compound 2-9, 9-[(R(-)-1-Hydroxymethyl-3-phosphono)-propyl-oxymethyl]guanine], the “share of the antiviral activity of the racemate due to the enantiomer (conclusion in words)” value [1] is reported as “majority of the antiviral activity of the racemate is due to the (R) enantiomer” and the “activity against several herpes viruses (in words)” value [2] is reported as “significant activity against several herpes viruses”.
